# In patent publication US20180169242A1, “PHARMACEUTICAL COMBINATION FOR CANCER TREATMENT AND THE THERAPEUTIC USE THEREOF” (Shiner Pharm Corp., priority 2016, published 2018):
# Test system: Lewis lung carcinoma cells
# Experiment: Local tumor growth (tumor volume) in Lewis lung carcinoma animal model
# Assay type: in vivo, C57BL/6 mice
# Settings: metformin 200 mg/kg/day, fluvastatin 80 mg/kg/day
# Description: Lewis lung carcinoma (LLC) model was established.
# The cancer inhibiting effect of metformin and statin was examined. After the mice were sacrificed, tumor volume on the right thigh of the mice was measured to deteiiiiine local tumor growth.
smiles,measurement,setting,value
CN(C)C(=N)N=C(N)N [metformin],therapeutic effect on tumor volume compared with the sham group,"no irradiation, day 7 to day 11, tumor volume on right thigh at day 21",did not exhibit any therapeutic effect
same,local tumor growth / tumor volume when combined with radiotherapy,"with 40 Gy irradiation in two 20 Gy fractions (day 8, day 10), compared with RT alone, RT+M and RT+S, day 21",neither combining radiotherapy with metformin alone or with statin alone could suppress local tumor growth
